Reference: publication PMC4229968, “The Inhibition of the Components from Shengmai Injection towards UDP-Glucuronosyltransferase” (Evidence-based Complementary and Alternative Medicine : eCAM, 2014)

Experiments:
Format in all cases: in vitro ADME
UGT1A1 = biological target: T1, UGT1A1 (Homo sapiens, UniProt P22309); assay: Recombinant UGT1A1-catalyzed 4-MU glucuronidation inhibition; settings: pH 7.4, probe 4-methylumbelliferone (4-MU), UGT1A1, 100 μM of compound, 4-MU substrate, read-out: residual activity
T1 construct: purchased BD Gentest Corp. (Woburn, MA, USA); host or cells: baculovirus-infected insect cells
T1 sequence (P22309 26-533): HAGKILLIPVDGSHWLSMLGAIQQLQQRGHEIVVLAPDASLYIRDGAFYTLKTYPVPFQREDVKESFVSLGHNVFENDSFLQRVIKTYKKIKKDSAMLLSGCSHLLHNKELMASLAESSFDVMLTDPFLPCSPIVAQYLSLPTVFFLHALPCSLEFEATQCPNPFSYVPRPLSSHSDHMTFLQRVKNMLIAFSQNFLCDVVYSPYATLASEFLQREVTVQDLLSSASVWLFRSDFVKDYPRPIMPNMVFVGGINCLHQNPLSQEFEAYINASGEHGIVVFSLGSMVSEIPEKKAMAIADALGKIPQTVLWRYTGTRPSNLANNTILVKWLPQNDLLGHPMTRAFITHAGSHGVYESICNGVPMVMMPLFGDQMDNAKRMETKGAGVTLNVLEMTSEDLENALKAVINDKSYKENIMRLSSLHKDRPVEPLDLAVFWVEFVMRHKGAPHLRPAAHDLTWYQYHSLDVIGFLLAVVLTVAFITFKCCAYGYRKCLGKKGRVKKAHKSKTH
Excerpt: (§1) 4-Methylumbelliferone (4-MU), 4-methylumbelliferone-β-D-glucuronide (4-MUG), Tris-HCl, 7-hydroxycoumarin, and uridine-5′-diphosphoglucuronic acid (UDPGA) (trisodium salt) were purchased from Sigma-Aldrich (St. Louis, MO). Recombinant human UGT isoforms (UGT1A1, UGT1A3, UGT1A4, UGT1A6, UGT1A7, UGT1A8, UGT1A9, UGT1A10, UGT2B4, UGT2B7, and UGT2B15) expressed in baculovirus-infected insect cells were obtained from BD Gentest Corp. (Woburn, MA, USA). Ophiopogonin D (OD), ophiopogonin D′ (OD′), methylophiopogonanone A (MA), methylophiopogonanone B (MB), and ruscorectal (RU) were purchased from Sichuan Weikeqi Biotechnology Company (Chengdu, Sichuan, China). The purity of these compounds was above 95%. All other reagents were of HPLC grade or of the highest grade commercially available.
(§2) 4-MU, the nonspecific probe substrate for all the UGT isoforms except UGT1A4, was used in the present study to initially screen the inhibition potential of maidong's components towards UGT isoforms as previously reported. In brief, the incubation system (total volume = 200 μL) consisted of recombinant UGTs, 5 mM UDPGA, 5 mM MgCl2, 50 mM Tris-HCl (pH = 7.4), and 4-MU in the absence or presence of different concentrations of maidong's components. The compounds were dissolved in DMSO, and the final concentration of DMSO was below 0.5% (v/v). The used incubation time and protein concentration were previously determined to ensure the reaction rate within the linear range. The 4-MU concentration was equal to known K m or S 50 values for each UGT isoform. After 5 min preincubation at 37°C, the incubation reaction was initiated via adding UDPGA to the mixture system. The reactions were quenched by adding 100 μL acetonitrile with 7-hydroxycoumarin (100 μM) as internal standard. Centrifuged at 20000 ×g for 10 min, an aliquot of supernatant was transferred to an autoinjector vial for HPLC analysis. The HPLC system (Shimadzu, Kyoto, Japan) contained a SCL-10A system controller, two LC-10AT pumps, a SIL-10A autoinjector, and a SPD-10AVP UV detector. Chromatographic separation was carried out using a C18 column (4.6 × 200 mm, 5 μm, Kromasil) at a flow rate of 1 mL/min and UV detector at 316 nm. The mobile phase consisted of acetonitrile (A) and H2O containing 0.5% (v/v) formic acid (B). The following gradient condition was used: 0–15 min, 95–40% B; 15–20 min, 10% B; 20–30 min, 95% B.

UGT1A9 = biological target: T2, UGT1A9 (Homo sapiens, UniProt O60656); assay: Recombinant UGT1A9-catalyzed 4-MU glucuronidation inhibition; settings: pH 7.4, probe 4-methylumbelliferone (4-MU), UGT1A9, 100 μM of compound, 4-MU substrate, read-out: residual activity
T2 construct: purchased BD Gentest Corp. (Woburn, MA, USA); host or cells: baculovirus-infected insect cells
T2 sequence (O60656 26-530): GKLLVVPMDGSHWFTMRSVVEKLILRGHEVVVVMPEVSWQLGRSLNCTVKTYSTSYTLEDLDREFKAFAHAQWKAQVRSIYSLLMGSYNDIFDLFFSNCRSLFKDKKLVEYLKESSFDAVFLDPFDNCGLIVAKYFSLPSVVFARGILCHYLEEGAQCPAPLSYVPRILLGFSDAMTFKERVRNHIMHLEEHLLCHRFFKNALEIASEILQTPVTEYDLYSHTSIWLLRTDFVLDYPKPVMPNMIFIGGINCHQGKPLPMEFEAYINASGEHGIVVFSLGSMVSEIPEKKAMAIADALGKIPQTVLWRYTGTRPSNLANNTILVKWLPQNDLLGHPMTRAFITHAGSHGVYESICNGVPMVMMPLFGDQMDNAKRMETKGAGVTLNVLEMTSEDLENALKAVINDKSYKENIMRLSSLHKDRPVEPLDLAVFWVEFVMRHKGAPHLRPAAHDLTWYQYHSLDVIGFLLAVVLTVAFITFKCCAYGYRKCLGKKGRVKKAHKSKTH
Excerpt: as §1, §2

UGT2B4 = biological target: T3, UGT2B4 (Homo sapiens, UniProt P06133); assay: Recombinant UGT2B4-catalyzed 4-MU glucuronidation inhibition; settings: pH 7.4, probe 4-methylumbelliferone (4-MU), UGT2B4, 100 μM of compound, 4-MU substrate, read-out: residual activity
T3 construct: purchased BD Gentest Corp. (Woburn, MA, USA); host or cells: baculovirus-infected insect cells
T3 sequence (P06133 24-528): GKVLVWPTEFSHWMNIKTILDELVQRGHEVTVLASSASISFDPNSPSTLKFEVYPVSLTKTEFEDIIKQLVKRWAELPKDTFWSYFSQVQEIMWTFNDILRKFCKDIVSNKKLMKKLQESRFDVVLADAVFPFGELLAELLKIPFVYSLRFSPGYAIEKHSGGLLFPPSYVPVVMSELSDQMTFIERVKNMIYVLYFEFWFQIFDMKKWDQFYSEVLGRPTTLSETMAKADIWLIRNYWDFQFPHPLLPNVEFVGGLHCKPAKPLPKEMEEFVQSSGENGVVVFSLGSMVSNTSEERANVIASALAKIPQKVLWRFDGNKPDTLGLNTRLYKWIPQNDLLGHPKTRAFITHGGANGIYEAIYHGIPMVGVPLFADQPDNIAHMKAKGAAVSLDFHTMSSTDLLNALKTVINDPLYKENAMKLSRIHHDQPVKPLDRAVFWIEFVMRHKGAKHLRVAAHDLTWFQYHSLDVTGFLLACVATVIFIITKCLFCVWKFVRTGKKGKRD
Excerpt: as §1, §2

Row | SMILES | activity at 100 µM (UGT1A1) [%] | activity at 100 µM (UGT1A9) [%] | activity at 100 µM (UGT2B4) [%]
1 | Cc1c(O)c(C)c2c(c1O)C(=O)[C@H](Cc1ccc3c(c1)OCO3)CO2 [MA, methylophiopogonanone A] | 31.3 ± 1.3 | 38.7 | 71.1 ± 1.5
2 | COc1ccc(C[C@@H]2COc3c(C)c(O)c(C)c(O)c3C2=O)cc1 [MB, methylophiopogonanone B] | 27.9 ± 11.1 | 68.2 ± 1.5 | 73.2 ± 1.2
3 | C[C@@H]1CC[C@@]2(OC1)O[C@H]1C[C@H]3[C@@H]4CC=C5C[C@@H](O)C[C@@H](O[C@@H]6O[C@H](C)[C@H](O)[C@H](O[C@@H]7OC[C@@H](O)[C@H](O)[C@H]7O)[C@H]6O[C@@H]6O[C@@H](C)[C@H](O)[C@@H](O)[C@H]6O)[C@]5(C)[C@H]4CC[C@]3(C)[C@H]1[C@@H]2C [OD, ophiopogonin D] | 77.1 ± 3.8 | 135 ± 1.5 | 102 ± 2.6
4 | C[C@@H]1CC[C@@]2(OC1)O[C@H]1C[C@H]3[C@@H]4CC=C5C[C@@H](O[C@@H]6O[C@H](CO)[C@@H](O)[C@H](O[C@@H]7OC[C@@H](O)[C@H](O)[C@H]7O)[C@H]6O[C@@H]6O[C@@H](C)[C@H](O)[C@@H](O)[C@H]6O)CC[C@]5(C)[C@H]4CC[C@]3(C)[C@H]1[C@@H]2C [OD′, ophiopogonin D′] | 81 ± 12.6 | 134 ± 2.1 | 118 ± 21.8
5 | CC1CCC2(OC1)OC1CC3C4CC=C5CC(O)CC(O)C5(C)C4CCC3(C)C1C2C (stereo not drawn) [RU, ruscorectal] | 41.5 ± 36.9 | 110.7 ± 1.1 | 88.4 ± 1.6
